Target: T1, Protein mono-ADP-ribosyltransferase TIPARP (Homo sapiens, UniProt Q7Z3E1)
T1 sequence (Q7Z3E1 whole entry): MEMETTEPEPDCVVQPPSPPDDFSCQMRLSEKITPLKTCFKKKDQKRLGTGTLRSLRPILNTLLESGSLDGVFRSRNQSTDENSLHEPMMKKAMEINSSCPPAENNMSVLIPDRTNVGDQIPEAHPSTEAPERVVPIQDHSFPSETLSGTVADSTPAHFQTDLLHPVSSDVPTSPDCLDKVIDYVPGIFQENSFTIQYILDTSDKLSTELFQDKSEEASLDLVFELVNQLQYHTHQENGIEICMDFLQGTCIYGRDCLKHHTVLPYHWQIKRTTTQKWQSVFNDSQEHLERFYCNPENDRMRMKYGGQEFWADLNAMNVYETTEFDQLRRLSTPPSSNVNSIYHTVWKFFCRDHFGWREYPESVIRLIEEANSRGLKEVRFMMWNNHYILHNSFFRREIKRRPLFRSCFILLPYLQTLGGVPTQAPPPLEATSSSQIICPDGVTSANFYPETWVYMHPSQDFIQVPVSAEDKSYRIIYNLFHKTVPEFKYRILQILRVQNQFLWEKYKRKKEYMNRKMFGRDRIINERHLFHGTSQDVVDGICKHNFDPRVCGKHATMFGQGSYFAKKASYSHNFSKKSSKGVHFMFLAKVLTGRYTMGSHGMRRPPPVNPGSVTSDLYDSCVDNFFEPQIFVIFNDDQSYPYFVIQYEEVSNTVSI
Test: Displacement of biotinylated RBN011147 probe from PARP7 (unknown origin) preincubated for 1 hr followed by incubation with probe for 1.5 hrs by MSD electrochemiluminescent assay

IC50	Compound
188 pM	C[C@@H](CCCn1ccc2cc(-c3ncc(Cl)c(N)n3)c(F)cc2c1=O)Nc1cn[nH]c(=O)c1C(F)(F)F
188 pM	C[C@@H](CCCn1ccc2cc(-c3ncc(C(F)(F)F)c(N4CC(C#N)C4)n3)c(F)cc2c1=O)Nc1cn[nH]c(=O)c1C(F)(F)F
185 pM	C[C@@H](CCCn1ccc2cc(-c3ncc(C(F)(F)F)c(N4C[C@@H](O)[C@@H]4C)n3)c(F)cc2c1=O)Nc1cn[nH]c(=O)c1C(F)(F)F
